Assay results from patent US20240384268A1, “Oligonucleotides” (Hudson Institute of Medical Research, priority 2021, published 2024).

Target: T1, human TLR9 (Homo sapiens, UniProt Q9NR96)
T1 construct: HA; host or cells: 293XL-hTLR9-HA (HEK293)
T1 sequence (Q9NR96 26-1032): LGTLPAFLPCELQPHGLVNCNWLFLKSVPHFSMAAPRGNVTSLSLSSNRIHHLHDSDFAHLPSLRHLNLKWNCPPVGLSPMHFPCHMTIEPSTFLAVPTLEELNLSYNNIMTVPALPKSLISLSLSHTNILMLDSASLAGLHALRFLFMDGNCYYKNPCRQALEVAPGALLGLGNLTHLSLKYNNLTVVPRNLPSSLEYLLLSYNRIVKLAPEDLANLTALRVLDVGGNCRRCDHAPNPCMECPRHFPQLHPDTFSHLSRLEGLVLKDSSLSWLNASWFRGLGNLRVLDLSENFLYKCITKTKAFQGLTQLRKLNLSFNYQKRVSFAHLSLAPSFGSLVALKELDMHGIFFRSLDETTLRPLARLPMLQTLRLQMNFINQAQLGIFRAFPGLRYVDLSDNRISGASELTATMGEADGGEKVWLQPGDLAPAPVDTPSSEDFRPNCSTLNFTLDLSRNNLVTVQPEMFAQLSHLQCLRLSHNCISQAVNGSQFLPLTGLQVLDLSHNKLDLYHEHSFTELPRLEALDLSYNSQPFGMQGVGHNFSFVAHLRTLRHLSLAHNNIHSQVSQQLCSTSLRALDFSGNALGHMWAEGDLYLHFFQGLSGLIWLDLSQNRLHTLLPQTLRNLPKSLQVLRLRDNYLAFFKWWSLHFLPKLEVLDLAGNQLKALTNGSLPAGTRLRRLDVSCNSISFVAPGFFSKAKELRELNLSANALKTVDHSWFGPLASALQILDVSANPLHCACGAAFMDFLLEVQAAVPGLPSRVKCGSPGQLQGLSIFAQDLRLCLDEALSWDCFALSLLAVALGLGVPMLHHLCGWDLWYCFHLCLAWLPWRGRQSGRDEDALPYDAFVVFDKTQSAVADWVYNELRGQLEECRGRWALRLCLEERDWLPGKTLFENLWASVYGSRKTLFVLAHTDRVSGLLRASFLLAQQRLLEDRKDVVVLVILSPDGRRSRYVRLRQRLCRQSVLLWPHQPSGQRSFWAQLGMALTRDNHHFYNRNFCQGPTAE
Assay: HEK-TLR9 NF-κB-luciferase reporter, ODN2006 stimulation
Format: cell-based
Conditions: MOE-modified ASO at 100 nM; averaged NF-κB-Luciferase relative to ODN2006 condition

Sequence	TLR9 100 nM
AACACTTCGTGGGGTCCTTT (antisense; 2'-MOE modified, pattern not given here) [HPRT-664 MOE]	0.426
AATCCGCCCAAAGGGAACTG (antisense; 2'-MOE modified, pattern not given here) [HPRT-1027 MOE]	0.591
ACAACCCCTTTCACCATCCC (antisense; 2'-MOE modified, pattern not given here) [MB21D1-689 MOE]	0.785
ACAGTGTTGAGATACTCGGG (antisense; 2'-MOE modified, pattern not given here) [EGFR-3652 MOE]	0.436
ACCCACTTGGCAGACCATCA (antisense; 2'-MOE modified, pattern not given here) [CTNN2B-1575 MOE]	0.725
ACTGACTGTCTTGAGGGTTC (antisense; 2'-MOE modified, pattern not given here) [MB21D1-1483 MOE]	0.424
AGATCTGGCAGCCCATCAAC (antisense; 2'-MOE modified, pattern not given here) [CTNN2B-2516 MOE]	0.607
AGGTCTTGGCTTCGTGGAGC (antisense; 2'-MOE modified, pattern not given here) [MB21D1-522 MOE]	0.568
ATCCAACACTTCGTGGGGTC (antisense; 2'-MOE modified, pattern not given here) [HPRT-668 MOE]	0.287
ATGTCCCCTGTTGACTGGTC (antisense; 2'-MOE modified, pattern not given here) [HPRT-489 MOE]	0.968
ATGTCCCGCCACTGGATGCT (antisense; 2'-MOE modified, pattern not given here) [EGFR-727 MOE]	0.801
ATGTGATGGCCTCCCATCTC (antisense; 2'-MOE modified, pattern not given here) [HPRT-333 MOE]	0.900
CAACACTTCGTGGGGTCCTT (antisense; 2'-MOE modified, pattern not given here) [HPRT-665 MOE]	0.858
CAAGGCCCTTCGCACTTCTT (antisense; 2'-MOE modified, pattern not given here) [EGFR-1225 MOE]	0.624
CAATGTGATGGCCTCCCATC (antisense; 2'-MOE modified, pattern not given here) [HPRT-335 MOE]	0.614
CACCCACTTGGCAGACCATC (antisense; 2'-MOE modified, pattern not given here) [CTNN2B-1576 MOE]	0.665
CAGATAGCACCTTCAGCACT (antisense; 2'-MOE modified, pattern not given here) [CTNN2B-1294 MOE]	0.583
CCAACACTTCGTGGGGTCCT (antisense; 2'-MOE modified, pattern not given here) [HPRT-666 MOE]	0.612
CGTGTCTGGAAGCTTCCTTT (antisense; 2'-MOE modified, pattern not given here) [CTNN2B-808 MOE]	0.568
CTCTTGAAGCATCGTATCAC (antisense; 2'-MOE modified, pattern not given here) [CTNN2B-3648 MOE]	0.721
CTGTGATCTTGACATGCTGC (antisense; 2'-MOE modified, pattern not given here) [EGFR-2790 MOE]	0.506
CTTACTTTCCGAGGTGTCCA (antisense; 2'-MOE modified, pattern not given here) [CAMSAP1-1739 MOE]	0.647

Sequence	TLR9 100 nM
GAACCACGTCTGCTCTAACA (antisense; 2'-MOE modified, pattern not given here) [CAMSAP1-1635 MOE]	0.588
GAGGTCTTGGCTTCGTGGAG (antisense; 2'-MOE modified, pattern not given here) [MB21D1-523 MOE]	0.888
GAGTCTCTGGAGCTTCCTCT (antisense; 2'-MOE modified, pattern not given here) [CAMSAP1-2456 MOE]	0.594
GATGCTCCTCGGTCTCCCTT (antisense; 2'-MOE modified, pattern not given here) [CAMSAP1-1850 MOE]	0.792
GATGGCCTCCCATCTCCTTC (antisense; 2'-MOE modified, pattern not given here) [HPRT-329 MOE]	0.662
GCCGCTTTTCTGTCTGGTTC (antisense; 2'-MOE modified, pattern not given here) [CTNN2B-311 MOE]	0.684
GCGACTATACGCGCAATATG (antisense; 2'-MOE modified, pattern not given here) [NC5 2′MOE]	0.395
GCGGAGGTCTTGGCTTCGTG (antisense; 2'-MOE modified, pattern not given here) [MB21D1-526 MOE]	0.682
GCGTATTATAGCCGATTAAC (antisense; 2'-MOE modified, pattern not given here) [NC1 2′MOE]	0.460
GCGTGTCTGGAAGCTTCCTT (antisense; 2'-MOE modified, pattern not given here) [CTNN2B-809 MOE]	0.263
GCTTCAGGCGCTGCCTTGCC (antisense; 2'-MOE modified, pattern not given here) [CAMSAP1-2709 MOE]	0.833
GGAGATTTCAGAGCAGCTTC (antisense; 2'-MOE modified, pattern not given here) [EGFR-4885 MOE]	0.541
GGAGCTTCGAGGCCCCAGGC (MOE modified, pattern not given here) [MB21D1-616 MOE]	0.588
GGAGGTCTTGGCTTCGTGGA (antisense; 2'-MOE modified, pattern not given here) [MB21D1-524 MOE]	0.466
GGCATCCACCACGTCGTCCA (antisense; 2'-MOE modified, pattern not given here) [EGFR-3266 MOE]	0.742
GGGAAAGGTTATGCAAGGTC (antisense; 2'-MOE modified, pattern not given here) [CTNN2B-916 MOE]	0.521
GGTCCATACCCAAGGCATCC (antisense; 2'-MOE modified, pattern not given here) [CTNN2B-2446 MOE]	0.687
GGTGGTCCACAACCCCTTTC (antisense; 2'-MOE modified, pattern not given here) [MB21D1-697 MOE]	0.456
GGTGGTGGCCACCCATCTCA (antisense; 2'-MOE modified, pattern not given here) [CTNN2B-2479 MOE]	0.761
GGTGTCCTTGCACGTGGCTT (antisense; 2'-MOE modified, pattern not given here) [EGFR-1016 MOE]	1.064
GTCCACATCCTGTGGCTCGT (antisense; 2'-MOE modified, pattern not given here) [CAMSAP1-2906 MOE]	0.559

Same assay, conditions: MOE-modified ASO at 500 nM; averaged NF-κB-Luciferase relative to ODN2006 condition

Sequence	TLR9 500 nM
AACACTTCGTGGGGTCCTTT (antisense; 2'-MOE modified, pattern not given here) [HPRT-664 MOE]	0.402
AATCCGCCCAAAGGGAACTG (antisense; 2'-MOE modified, pattern not given here) [HPRT-1027 MOE]	0.591
ACAACCCCTTTCACCATCCC (antisense; 2'-MOE modified, pattern not given here) [MB21D1-689 MOE]	0.499
ACAGTGTTGAGATACTCGGG (antisense; 2'-MOE modified, pattern not given here) [EGFR-3652 MOE]	0.194
ACCCACTTGGCAGACCATCA (antisense; 2'-MOE modified, pattern not given here) [CTNN2B-1575 MOE]	0.556
ACTGACTGTCTTGAGGGTTC (antisense; 2'-MOE modified, pattern not given here) [MB21D1-1483 MOE]	0.291
AGATCTGGCAGCCCATCAAC (antisense; 2'-MOE modified, pattern not given here) [CTNN2B-2516 MOE]	0.268
AGGTCTTGGCTTCGTGGAGC (antisense; 2'-MOE modified, pattern not given here) [MB21D1-522 MOE]	0.280
ATCCAACACTTCGTGGGGTC (antisense; 2'-MOE modified, pattern not given here) [HPRT-668 MOE]	0.618
ATGTCCCCTGTTGACTGGTC (antisense; 2'-MOE modified, pattern not given here) [HPRT-489 MOE]	0.953
ATGTCCCGCCACTGGATGCT (antisense; 2'-MOE modified, pattern not given here) [EGFR-727 MOE]	0.423
ATGTGATGGCCTCCCATCTC (antisense; 2'-MOE modified, pattern not given here) [HPRT-333 MOE]	0.918
CAACACTTCGTGGGGTCCTT (antisense; 2'-MOE modified, pattern not given here) [HPRT-665 MOE]	0.619
CAAGGCCCTTCGCACTTCTT (antisense; 2'-MOE modified, pattern not given here) [EGFR-1225 MOE]	0.712
CAATGTGATGGCCTCCCATC (antisense; 2'-MOE modified, pattern not given here) [HPRT-335 MOE]	0.412
CACCCACTTGGCAGACCATC (antisense; 2'-MOE modified, pattern not given here) [CTNN2B-1576 MOE]	0.677
CAGATAGCACCTTCAGCACT (antisense; 2'-MOE modified, pattern not given here) [CTNN2B-1294 MOE]	0.484
CCAACACTTCGTGGGGTCCT (antisense; 2'-MOE modified, pattern not given here) [HPRT-666 MOE]	0.600
CGTGTCTGGAAGCTTCCTTT (antisense; 2'-MOE modified, pattern not given here) [CTNN2B-808 MOE]	0.259
CTCTTGAAGCATCGTATCAC (antisense; 2'-MOE modified, pattern not given here) [CTNN2B-3648 MOE]	0.472
CTGTGATCTTGACATGCTGC (antisense; 2'-MOE modified, pattern not given here) [EGFR-2790 MOE]	0.298
CTTACTTTCCGAGGTGTCCA (antisense; 2'-MOE modified, pattern not given here) [CAMSAP1-1739 MOE]	0.531

Sequence	TLR9 500 nM
GAACCACGTCTGCTCTAACA (antisense; 2'-MOE modified, pattern not given here) [CAMSAP1-1635 MOE]	0.466
GAGGTCTTGGCTTCGTGGAG (antisense; 2'-MOE modified, pattern not given here) [MB21D1-523 MOE]	0.650
GAGTCTCTGGAGCTTCCTCT (antisense; 2'-MOE modified, pattern not given here) [CAMSAP1-2456 MOE]	0.127
GATGCTCCTCGGTCTCCCTT (antisense; 2'-MOE modified, pattern not given here) [CAMSAP1-1850 MOE]	0.196
GATGGCCTCCCATCTCCTTC (antisense; 2'-MOE modified, pattern not given here) [HPRT-329 MOE]	1.268
GCCGCTTTTCTGTCTGGTTC (antisense; 2'-MOE modified, pattern not given here) [CTNN2B-311 MOE]	1.018
GCGACTATACGCGCAATATG (antisense; 2'-MOE modified, pattern not given here) [NC5 2′MOE]	0.035
GCGGAGGTCTTGGCTTCGTG (antisense; 2'-MOE modified, pattern not given here) [MB21D1-526 MOE]	0.246
GCGTATTATAGCCGATTAAC (antisense; 2'-MOE modified, pattern not given here) [NC1 2′MOE]	0.064
GCGTGTCTGGAAGCTTCCTT (antisense; 2'-MOE modified, pattern not given here) [CTNN2B-809 MOE]	0.229
GCTTCAGGCGCTGCCTTGCC (antisense; 2'-MOE modified, pattern not given here) [CAMSAP1-2709 MOE]	0.824
GGAGATTTCAGAGCAGCTTC (antisense; 2'-MOE modified, pattern not given here) [EGFR-4885 MOE]	0.381
GGAGCTTCGAGGCCCCAGGC (MOE modified, pattern not given here) [MB21D1-616 MOE]	0.168
GGAGGTCTTGGCTTCGTGGA (antisense; 2'-MOE modified, pattern not given here) [MB21D1-524 MOE]	0.342
GGCATCCACCACGTCGTCCA (antisense; 2'-MOE modified, pattern not given here) [EGFR-3266 MOE]	0.481
GGGAAAGGTTATGCAAGGTC (antisense; 2'-MOE modified, pattern not given here) [CTNN2B-916 MOE]	0.505
GGTCCATACCCAAGGCATCC (antisense; 2'-MOE modified, pattern not given here) [CTNN2B-2446 MOE]	0.453
GGTGGTCCACAACCCCTTTC (antisense; 2'-MOE modified, pattern not given here) [MB21D1-697 MOE]	0.071
GGTGGTGGCCACCCATCTCA (antisense; 2'-MOE modified, pattern not given here) [CTNN2B-2479 MOE]	0.317
GGTGTCCTTGCACGTGGCTT (antisense; 2'-MOE modified, pattern not given here) [EGFR-1016 MOE]	0.714
GTCCACATCCTGTGGCTCGT (antisense; 2'-MOE modified, pattern not given here) [CAMSAP1-2906 MOE]	0.254
